Data from PubChem BioAssay (NCI).
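Where inhibition never reached the appropriate level, the endpoint shown equals the highest concentration tested. Otherwise, values were interpolated linearly from a five-concentration, 48-hour dose response in 96-well plates. Here, GI50 denotes the concentration required for 50% inhibition of growth. At the TGI there is no net growth.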

Columns and labels:
Experiment in all cases: NCI anticancer screen, dose series, 48 h
[1] = system: COLO 205 colon
[2] = system: HOP-92 NSCLC
[3] = system: MALME-3M melanoma
[4] = system: MOLT-4 leukemia
[5] = system: NCI-H460 lung
[6] = system: OVCAR-3 ovarian
[7] = system: TK-10 renal
[8] = system: HOP-62 NSCLC
[9] = system: MCF7 breast
[10] = system: HS 578T breast

SMILES | TGI [1] [µM] | TGI [2] [µM] | TGI [3] [µM] | TGI [4] [µM] | TGI [5] [µM] | TGI [6] [µM] | TGI [7] [µM] | GI50 [1] [µM] | GI50 [8] [µM] | TGI [8] [µM] | GI50 [2] [µM] | GI50 [3] [µM] | GI50 [4] [µM] | GI50 [5] [µM] | GI50 [6] [µM] | GI50 [7] [µM] | GI50 [9] [µM] | TGI [9] [µM] | GI50 [10] [µM] | TGI [10] [µM]
CCC1=CCC(P(=O)(c2ccccc2)c2ccccc2)CC1C (configuration not stated) | > 100 | 71.6 | > 100 | 46.2 | > 100 | > 100 | > 100 | – | – | – | – | – | – | – | – | – | – | – | – | –
CC[C@@]1(O)C(=O)OCc2c1cc1n(c2=O)Cc2cc3cccc(N)c3nc2-1 | > 100 | > 100 | > 100 | > 100 | 11.2 | > 100 | > 100 | 13.9 | 2.36 | 6.24 | > 100 | 84.5 | 2.35 | 1.38 | 66.8 | > 100 | – | – | – | –
CC1=C(C(=O)Nc2ccccc2C)C(c2ccccc2O)C(C(=O)Nc2ccccc2C)=C(C)N1 | – | > 100 | 92.4 | > 100 | 31.1 | 36.3 | 86 | – | – | 45.8 | – | – | – | – | – | – | – | – | – | –
Oc1ccccc1/C=N\Nc1ccccc1 | 21.3 | 42.8 | 21.7 | 55.6 | > 100 | > 100 | > 100 | 5.92 | 21.9 | > 100 | 10.7 | 3.72 | 0.974 | 3.36 | 10.4 | 24.9 | 4.06 | > 100 | – | –
C/C(CC(=O)Nc1cccc([N+](=O)[O-])c1)=N/NC(N)=S | > 100 | > 100 | > 100 | > 100 | > 100 | > 100 | > 100 | – | – | > 100 | – | – | – | – | – | – | – | – | – | –
COC(=O)/C=C(C)/C=C/c1c(C)c(C(C)=O)c(C)n1C | > 100 | 92.8 | > 100 | > 100 | – | > 100 | > 100 | – | – | > 100 | – | – | – | – | – | – | – | – | – | –
O=C1/C=C/[C@@H](O)[C@@H]2C[C@@H](O)C[C@H]2/C=C/CCC[C@H](CCc2ccc(NC(=S)Nc3ccc4c(c3)C(=O)OC43c4ccc(O)cc4Oc4cc(O)ccc43)cc2)O1 | 0.384 | > 27.6 | > 100 | 4.07 | > 100 | 0.862 | 12.6 | 0.208 | 0.518 | > 100 | 0.932 | 2.26 | 0.432 | 2.62 | 0.317 | 0.608 | – | – | 0.305 | > 100
Cc1cc(C(=O)CC(Cl)=C(Cl)Cl)c(Cl)cc1Cl | 86.1 | – | 34.5 | – | 90.6 | 54.1 | 32 | 27.7 | 21.2 | 44.1 | – | 14.3 | – | 23.8 | 21.4 | 15.9 | 29.1 | > 100 | 30.3 | 78.4
